Data set [1] deals with TYK2 dependent cell lines (T-ALL cells). Conditions: Sanda et al., cited from earlier work.
In data set [2] the test system is CCRF-HSB-2 cells (TYK2-dependent T-ALL). Put plainly: Cell proliferation assay (ATPlite, 7 days). The data set is classed as cell-based. Conditions: Homo sapiens, CCRF-HSB-2, 168 h. On the procedure:
(§1) Jurkat, MOLT-4, CCRF-CEM and CCRF-HSB-2 cells are all TYK2-dependent T-ALL cells. Loucy cells are TYK2-independent T-ALL cell lines. Dexamethasone, Etoposide and Paclitaxel were used as positive controls. Compound effects were studied 7 days after compound addition […] Luminescent product was detected using a BMG FLUOstar plate reader. • The data were analysed using a 4-parameter logistic equation in GraphPad Prism.

Data set [3] concerns Loucy cells (TYK2-independent T-ALL). Put plainly: Cell proliferation assay (ATPlite, 7 days). The data set is classed as cell-based. Conditions: 168 h. On the procedure: as §1
Data set [4] relates to MOLT-4 cells (TYK2-dependent T-ALL). Put plainly: Cell proliferation assay (ATPlite, 7 days). The data set is classed as cell-based. Conditions: Homo sapiens, MOLT-4, 168 h. As for the experimental part:
as §1
(In ATP-based viability assays light output follows the ATP content of the culture.)

Data set [5] relates to CCRF-CEM cells (TYK2-dependent T-ALL). Put plainly: Cell proliferation assay (ATPlite, 7 days). The data set is classed as cell-based. Conditions: Homo sapiens, 168 h. As for the experimental part:
as §1

The subject of data set [6] is Jurkat cells (TYK2-dependent T-ALL). Put plainly: Cell proliferation assay (ATPlite, 7 days). The data set is classed as cell-based. The settings on record: Homo sapiens, 168 h. As for the experimental part: as §1
For data set [7], the system named is pSTAT1, pTYK2, cleaved PARP in MOLT-4 tumours. Put plainly: PKPD study: Western blot of tumour tissue. The data set is classed as in vivo, male SCID mice. The settings on record: FIG. 6. On the procedure: (§2) Male SCID mice were implanted with MOLT-4 tumour cells (1×10^7 in 50% matrigel). When tumours reached approximately 150 mm^3 animals received a single dose of test compound. Animals to be sampled at 24 hrs also received a second dose at 12 hrs.
(§3) At 1, 6 and 24 h animals were sacrificed and plasma prepared. Tumour tissue was removed and divided into 2 sections—one for bioanalysis and the second for homogenisation for western blotting.
Tumour tissue was homogenised in lysis buffer supplemented with protease and phosphatase inhibitors. Protein in individual samples was quantified using a commercially available BCA kit.
50 μg total protein was run on a 4-20% pre-cast gel and transferred to PVDF membrane before being incubated with the following antibodies: • pSTAT1 • STAT1 • pTYK2 • TYK2 • Cleaved PARP • B-actin • Anti-rabbit IgG
In general terms: Immunoblotting shows a protein as a band on a membrane.

The test system of data set [8] is PARP cleavage in MOLT-4 cells. Put plainly: Western blot assay, chronic compound treatment. The data set is classed as cell-based. The settings on record: 48 hrs, tested 0.03-3 μM, FIG. 2. On the procedure:
MOLT-4 cells were treated with Compounds 25 and 29 (of Example 1) and three benchmark inhibitors (GLPG0634 (Filgotinib, developed by Galapagos), TG101209 and GDC-046) as comparative examples at five concentrations (3, 1, 0.3, 0.1 and 0.03 μM), for 48 hrs.
Cell lysates were analysed by Western blot and probed with antibodies against PARP and Actin.
The details of the antibodies used are set out in the table below.
Protocol • Cell were plated in 6-well plates at 4e6 cells per well in 6 ml of media (RPMI+10% FBS) and incubated for at least 1 h at 37° C., 5% CO2. • Cells were treated with the indicated concentrations of compounds for 48 hrs. • Cells were harvested by centrifuging at 12,000 rpm for 1 min (4° C.), washed in ice cold PBS and centrifuged again at 12,000 rpm for 1 min (4° C.). • The supernatant was removed and the cell pellet snap frozen on dry ice. • Cells were lysed in RIPA buffer (with protease and phosphatase inhibitors) and incubated on ice for 30 min. • Cellular debris was pelleted at 13,000 rpm for 5 min at 4° C., supernatant was transferred to a fresh tube. • Protein concentration was estimated using a BCA assay. • 30 μg of protein was loaded onto 4-12% NuPAGE Novex Bis-Tris protein gels (MOPs buffer). • Protein was transferred to a PVDF membrane using dry transfer (iBlot) and western blotting performed against the antigens of interest.

Data set [9] is described as follows: PKPD study: plasma and tumour concentrations. The data set is classed as in vivo, male SCID mice. Conditions: MOLT-4 tumour-bearing mice. As for the experimental part: as §2, §3
Data set [10] has as its system MOLT-4 tumours. Put plainly: Efficacy study in mice bearing MOLT-4 tumours (Example 7). The data set is classed as in vivo, male SCID mice. The settings on record: 21 days; for effect on MOLT-4 tumour growth: FIG. 7. From the text: MOLT-4 cells (1×10^7 in matrigel) were implanted onto the rear dorsum of male SCID mice using a 25-gauge needle. When tumours reached approximately 100 mm^3 the mice were randomly assigned to the following treatment groups.

The target in data set [11] is T1, TYK2 kinase (Homo sapiens, UniProt P29597).
T1 construct: 833-1187; GST (N); purchased Reaction Biology Corp. (contract assay); host or cells: Baculovirus in Sf21 insect cells
Put plainly: In vitro enzyme inhibition, 33P-ATP filter kinase assay (Reaction Biology). The data set is classed as biochemical. On the procedure:
(§4) Compounds of the invention were assayed for their ability to inhibit TYK2 kinase and other JAK kinases.
(§5) Substrates and kinases used in the assays are identified in Table 2 below.
(§6) JAK3tide=[Ac-[…]-NH2]

Data set [12] has as its target T2, JAK3 (Homo sapiens, UniProt P52333).
T2 construct: 781-1124; GST (N); purchased Reaction Biology Corp. (contract assay); host or cells: Baculovirus in Sf21 insect cells
The data set is described as above. The data set is classed as biochemical. On the procedure: as §4, §5, §6

For data set [13], the target named is T3, JAK1 (Homo sapiens, UniProt P23458).
T3 construct: 866-1154; GST (N); purchased Reaction Biology Corp. (contract assay); host or cells: Baculovirus in Sf21 insect cells
The description is as above. The data set is classed as biochemical. As for the experimental part: as §4, §5, §6

Data set [14] has as its system CCRF-HSB-2 tumours. Put plainly: Tumour growth delay study in mice bearing CCRF-HSB-2 tumours (Example 8). Conditions: 150 mg/kg Q5D IP, 18 days. The data set is classed as in vivo, male SCID mice. As for the experimental part:
(§7) Dosing solutions were prepared on the day of study.

For data set [15] the following is noted: 150 mg/kg Q5D IP.
Protocol: A total of 40 male SCID mice aged 5-7 weeks were used for the study. These were purchased from Charles River and allowed to acclimatize for 7 days prior to tumour implantation. Animals were housed in IVC cages (up to 5 per cage) with individual mice identified by tail mark. All animals were allowed free access to a standard certified commercial diet and sanitised water during the study. The holding room was maintained under standard conditions: 20-24° C., 40-70% humidity and a 12 h light/dark cycle.
CCRF-HSB-2 cells (5×10^6 in matrigel) were implanted onto the rear dorsum of male SCID mice using a 25-gauge needle. When tumours reached a size of approximately 100-150 mm^3 the mice were randomly assigned to the following treatment groups.
Dosing solutions were prepared on the day of study. Formulation was 0.5% methylcellulose/0.025% Tween-20 at dosing volume of 10 ml/kg based on animal weight on day of dosing. Animals were dosed orally twice daily (12 hours apart) for 18 consecutive days.
Data set [16] deals with MOLT-4 xenografts. Put plainly: Tumour growth delay study in mice bearing MOLT-4 xenografts (Example 9). The data set is classed as in vivo, male SCID mice. The settings on record: 150 mg/kg Q5D IP. As for the experimental part:
A total of 50 male SCID mice aged 5-7 weeks were used for the study. These were bred in-house at Axis Bioservices. Animals were housed in IVC cages (up to 5 per cage) with individual mice identified by tail mark. All animals were allowed free access to a standard certified commercial diet and sanitised water during the study. The holding room was maintained under standard conditions: 20-24° C., 40-70% humidity and a 12 h light/dark cycle.
MOLT-4 cells (1×10^7 in matrigel) were implanted onto the rear dorsum of male SCID mice using a 25-gauge needle. When tumours reached approximately 100-150 mm^3 the mice were randomly assigned to the following treatment groups.
as §7
The formulation for cyclophosphamide was PBS at a dosing volume of 10 ml/kg based on animal weight on day of dosing.
For combination dosing, both compounds were dosed at the same time.

The subject of data set [17] is TYK2-independent cell line (LOUCY). Conditions: Sanda et al.; cited from earlier work.

Where only a bound is given, the exact number is not on record here.

T3 sequence (P23458 866-1154): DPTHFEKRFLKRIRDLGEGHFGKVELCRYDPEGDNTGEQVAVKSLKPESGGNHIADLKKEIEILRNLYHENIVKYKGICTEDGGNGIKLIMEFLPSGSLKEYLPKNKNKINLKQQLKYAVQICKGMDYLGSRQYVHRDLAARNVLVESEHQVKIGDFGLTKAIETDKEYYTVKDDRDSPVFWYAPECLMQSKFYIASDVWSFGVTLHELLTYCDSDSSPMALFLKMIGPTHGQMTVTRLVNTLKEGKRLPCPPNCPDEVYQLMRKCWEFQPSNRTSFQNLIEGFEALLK
T2 sequence (P52333 781-1124): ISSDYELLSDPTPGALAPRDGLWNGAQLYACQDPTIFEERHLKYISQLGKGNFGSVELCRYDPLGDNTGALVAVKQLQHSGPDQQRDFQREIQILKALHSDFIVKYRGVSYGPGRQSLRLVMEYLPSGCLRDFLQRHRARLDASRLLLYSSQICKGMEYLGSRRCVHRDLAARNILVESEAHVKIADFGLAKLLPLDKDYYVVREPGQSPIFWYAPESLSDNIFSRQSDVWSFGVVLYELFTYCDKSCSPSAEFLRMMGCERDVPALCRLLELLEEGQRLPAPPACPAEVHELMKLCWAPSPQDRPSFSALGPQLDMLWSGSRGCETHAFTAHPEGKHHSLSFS
T1 sequence (P29597 833-1187): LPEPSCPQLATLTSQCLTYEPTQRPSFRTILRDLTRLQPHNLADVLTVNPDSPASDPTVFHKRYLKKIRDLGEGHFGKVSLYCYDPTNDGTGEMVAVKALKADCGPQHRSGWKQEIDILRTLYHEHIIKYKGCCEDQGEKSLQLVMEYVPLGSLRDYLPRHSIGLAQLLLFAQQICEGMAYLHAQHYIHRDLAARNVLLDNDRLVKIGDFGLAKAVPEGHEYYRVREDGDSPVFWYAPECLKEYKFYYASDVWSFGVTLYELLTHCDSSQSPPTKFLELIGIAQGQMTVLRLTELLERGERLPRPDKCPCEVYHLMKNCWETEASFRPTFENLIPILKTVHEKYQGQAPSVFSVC

`C[C@@H]1CCN(C(=O)CC#N)C[C@@H]1N(C)c1ncnc2[nH]ccc12` [CP-690550]: in [1], the “effect against the T-ALL cells” value is reported as “ineffective”.

What is called IC50 is the concentration needed to halve the response being measured. `CS(=O)(=O)c1ccc(Nc2oc(-c3c(Cl)cccc3Cl)nc2C(N)=O)cc1` [Compound 19, 2-(2,6-dichloro-phenyl)-5-(4-methanesulfonyl-phenylamino)-oxazole-4-carboxylic acid amide]: the values for the IC50 in data set [2], in data set [3] and in data set [4] were 17 µM, 20 µM and 12 µM, respectively. Besides, the inhibition at 30 µM was found to be 34% in [5] (30 μM, read-out: Cell proliferation inh. @ 30 μM, CCRF-CEM) and 8% in data set [6] (30 μM, read-out: Cell proliferation inh. @ 30 μM, Jurkat).

As to `CS(=O)(=O)c1ccc(Nc2oc(-c3c(F)cccc3Cl)nc2C(N)=O)cc1` [Compound 20, 2-(2-chloro-6-fluoro-phenyl)-5-(4-methanesulfonyl-phenylamino)-oxazole-4-carboxylic acid amide], the half-inhibitory concentration (IC50) came to 2.8 µM in data set [2]; 3.9 µM in data set [3]; 3.1 µM in data set [4]; 8.9 µM in [5]; 2.1 µM in data set [6].

As for `NC(=O)c1nc(-c2c(F)cccc2Cl)oc1Nc1ccc(C(=O)N2CCOCC2)cc1` [Compound 25, 2-(2-chloro-6-fluoro-phenyl)-5-[4-(morpholine-4-carbonyl)-phenylamino]-oxazole-4-carboxylic acid amide], the “level of phosphorylated STAT1 in tumour” value in data set [7] (MOLT-4 tumour tissue at 1, 6, 24 h vs vehicle) is “reduction in level of phosphorylated STAT1 at t=1 h, returning to normal in comparison with vehicle treated controls between 6 and 24 h”. In addition, in data set [7] (MOLT-4 tumour tissue, relative to vehicle treated controls), the “cleaved Parp in tumour” value is “An increase in cleaved Parp, relative to vehicle treated controls, was observed between 1 and 24 h”. In [7] (MOLT-4 tumour tissue, second dose at 12 hrs), the “Phosphorylated TYK2 levels in tumour” value is recorded as “increased at 24 h following the initial dose”. The 50% inhibitory concentration (IC50) is 0.43 µM in data set [2]; 0.35 µM in data set [3]; 0.27 µM in data set [4]; 0.38 µM in data set [5]; 0.15 µM in data set [6]; 0.564 nM in [11]. For the same compound, the IC50 was found to be 43.2 nM in [12] and 28.9 nM in data set [13]. Besides, in data set [8], the “concentrations at which cleaved PARP is present (apoptosis)” value is no less than 1 µM. Moreover, the “maximal concentration in plasma” value in data set [9] (plasma, single dose, FIG. 4) is greater than 4000 ng/mL. For the same compound, in data set [9] (plasma, single dose, FIG. 4), the “time of maximal exposure in plasma after dosing” value is reported as “one”. Moreover, in [9] (tumour tissue, FIG. 5), the “maximal concentration in tumour tissue” value is listed as > 3000 ng per gram of tumour tissue. In addition, the “time of maximal exposure in tumour tissue after dosing” value in [9] (tumour tissue, FIG. 5) is “six”. Also, the results for the “T/C (test versus control), tumour volume, end of study” value in [10] (25 mg/kg BID per os) and in [10] (50 mg/kg BID per os) were 63.5% and 27.0%, respectively. Besides, the “T/C (test versus control), tumour weight, end of study” value in [10] (25 mg/kg BID per os) amounted to 60.7%; in data set [10] (50 mg/kg BID per os), 24.0%. In addition, the “effect on MOLT-4 tumour growth” value in data set [10] (25 mg/kg BID per os) was “slowing growth but not resulting in tumour regression”; in data set [10] (50 mg/kg BID per os), “tumour regression”.

For the compound `C[C@@H]1C[C@H]2[C@@H]3CCC4=CC(=O)C=C[C@]4(C)[C@@]3(F)[C@@H](O)C[C@]2(C)[C@@]1(O)C(=O)CO` [Dexamethasone, reference compound], the half-inhibitory concentration (IC50) in data set [2] was found to be 49 µM; in [5], 59 µM. The inhibition at 10 µM amounted to 25% in data set [3] (10 μM, read-out: Cell proliferation inh. @ 10 μM, Loucy); 21% in data set [4] (10 μM, read-out: Cell proliferation inh. @ 10 μM, MOLT-4); 5% in data set [6] (10 μM, read-out: Cell proliferation inh. @ 10 μM, Jurkat).

For the compound `COc1cc([C@@H]2c3cc4c(cc3[C@@H](O[C@@H]3O[C@@H]5CO[C@@H](C)O[C@H]5[C@H](O)[C@H]3O)[C@H]3COC(=O)[C@H]23)OCO4)cc(OC)c1O` [Etoposide, reference compound], the half-maximal inhibitory concentration (IC50) in data set [2] is 4.7 µM; in data set [3], 33 µM; in data set [4] it was 7.7 µM; in data set [5], 17 µM; in data set [6], 94 µM.

Regarding `CC(=O)O[C@H]1C(=O)[C@@]2(C)[C@H]([C@H](OC(=O)c3ccccc3)[C@]3(O)C[C@H](OC(=O)[C@H](O)[C@@H](NC(=O)c4ccccc4)c4ccccc4)C(C)=C1C3(C)C)[C@]1(OC(C)=O)CO[C@@H]1C[C@@H]2O` [Paclitaxel, reference compound], the half-maximal inhibitory concentration (IC50) came out at 1.3 µM in data set [2]; 2.2 µM in [3]; 0.66 µM in data set [4]; 4.4 µM in [5]; 1.8 µM in data set [6].

With `O=P1(N(CCCl)CCCl)NCCCO1` (stereo not shown) [cyclophosphamide, reference compound], in data set [14], the “T/C (test versus control) at the end of the study period” value came to 5.9%. Also, in data set [10] (150 mg/kg Q5D), the “T/C (test versus control), tumour volume, end of study” value came to 51.7% and the “T/C (test versus control), tumour weight, end of study” value was found to be 49.0%. Further, the animal bodyweight entry in [15] is reported as “lost weight this was not significant”. Moreover, the “T/C (test versus control) at the end of the study period” value in [16] turned out to be 26.2%.

For the compound JAK Inhibitor I, in [17], the “sensitivity of TYK2-independent cell line (LOUCY)” value is “insensitive”. For the same compound, the IC50 in data set [1] (read-out: IC50 for inhibiting growth of TYK2 dependent cell lines) is 1 to 3 µM.

These data come from patent publication US20210401809A1, “PHARMACEUTICAL COMPOUNDS” (Sareum Limited, priority 2016, published 2021).
